Tested on: HIV-1
Assay: Phenotypic HIV-1 entry inhibitor susceptibility assay (pseudotyped virus, single-round infection, luciferase readout)
Type: cell-based
Details: for IC50 for inhibition of entry, resistant HIV relative to sensitive reference virus / maximum percentage of inhibition, resistant viruses relative to sensitive viruses: log-sigmoid inhibition curves; for IC50 for inhibition of entry, resistant HIV relative to sensitive reference virus / completeness of inhibition of entry of resistant virus at high inhibitor concentrations / maximum percentage of inhibition, resistant viruses relative to sensitive viruses: viruses resistant to the inhibitor; for IC50 for inhibition of entry, resistant HIV relative to sensitive reference virus: FIG. 5; for maximum percentage of inhibition, resistant viruses relative to sensitive viruses: FIG. 6, FIG. 8
Protocol: Susceptibility assays for HIV-1 entry inhibitors were performed using packaging host cells consisting of the human embryonic kidney cell line 293 (Cell Culture Facility, UC San Francisco, SF, Calif.) and target host cells consisting of a human osteosarcoma (HOS) cell line expressing CD4 (HT4) plus CCR5, and CXCR4, or astrocytoma (U-87) cell lines expressing either CD4 and CCR5 or CD4 and CXCR4.
Drug susceptibility testing was performed using pHIVenv and pHIVluc or pHIVlucΔU3. Pseudotyped HIV particles containing envelope proteins encoded by the subject derived segment were produced by transfecting a packaging host cell (HEK 293) with resistance test vector DNA. Virus particles were collected about 48 h after transfection and were used to infect target cells (HT4/CCR5/CXCR4, or U-87/CD4/CXCR4, or U-87/CD4/CCR5) that express the HIV receptor (i.e. CD4) and co-receptors (i.e. CXCR4, CCR5). After infection (~72 h) the target cells are lysed and luciferase activity is measured. HIV must complete one round of replication to successfully infect the target host cell and produce luciferase activity. The amount of luciferase activity detected in the infected cells is used as a direct measure of “infectivity” (FIGS. 1 and 2). […] Drug susceptibility is assessed by comparing the infectivity in the absence of drug to infectivity in the presence of drug.
Packaging host cells were seeded in 10-cm-diameter dishes and were transfected one day after plating with pHIVenv and pHIVluc or pHIVlucΔU3. Transfections were performed using a calcium-phosphate co-precipitation procedure. The cell culture media containing the DNA precipitate was replaced with fresh medium, from one to 24 hours, after transfection. Cell culture media containing viral particles was typically harvested 2 days after transfection and was passed through a […] filter. Before infection, target cells were plated in cell culture media. […] Typically, 3 days after infection target cells were assayed for luciferase activity using the Steady-Glo reagent (Promega) and a luminometer.
However, any such susceptibility assay known by one of skill in the art can in principle be used in the methods for determining phenotypic drug susceptibility. Drug susceptibility can be plotted, for example, as percent inhibition versus log10 drug concentration and defined based on, for example, the IC50 and percent inhibition at the highest drug concentration. […] In this example, the phenotypic drug susceptibility assay of Example 1 was used to determine a log-sigmoid curve showing the resistance of mutant HIV to SCH-C, TNX-355, T-20, and AMD-3100.

Row | Molecule | IC50 for inhibition of entry, resistant HIV relative to sensitive reference virus | completeness of inhibition of entry of resistant virus at high inhibitor concentrations | maximum percentage of inhibition, resistant viruses relative to sensitive viruses | susceptibility of viruses with drug resistance mutations in the gp41 envelope protein (cells expressing CD4, CCR5 and CXCR4, isogenic viruses with one or two gp41 mutations, FIG. 4B)
1 | c1cc(CN2CCCNCCNCCCNCC2)ccc1CN1CCCNCCNCCCNCC1 [AMD-3100] | increased IC50 | can be completely inhibited | – | –
2 | CCO/N=C(\c1ccc(Br)cc1)C1CCN(C2(C)CCN(C(=O)c3c(C)cc[n+]([O-])c3C)CC2)CC1 [SCH-C] | – | – | reduced maximum percentage of inhibition | –
3 | TNX-355: HIV entry inhibitor (Tanox Inc.), non-competitive | – | – | reduced maximum percentage of inhibition | –
4 | enfuvirtide | increased IC50 | can be completely inhibited | – | reduced susceptibility

From patent US11459624B2, “Compositions and methods for determining resistance to inhibitors of virus entry using recombinant virus assays” (MONOGRAM BIOSCIENCES, INC., priority 2004, dated 2022)
